The nature of this data set: Thermo Scientific Hypersil GOLD aQ, 100 × 2.1 mm, 1.9 µm, 30 °C, 0.3 mL/min, estimated dead time 0.73 min; A: water + 0.01% formic acid + 4 mM ammonium formate; B: methanol + 0.01% formic acid + 4 mM ammonium formate; gradient (min/%B) 0/5 1/5 8/100 12/100. To be noted: stereoisomer not certain.
On to `CNC(=O)ON=CC(C)(C)SC`, for which the LC retention time is 7.89 min. To `COP(=S)(OC)Oc1ccc([N+](=O)[O-])cc1` belongs 9.96 min; to `C=C(C)C1Cc2c(ccc3c2OC2COc4cc(OC)c(OC)cc4C2C3=O)O1` (centres undefined), 10.3 min; to `COC(=O)C(C)N(C(=O)c1ccco1)c1c(C)cccc1C` (centres undefined), 9.38 min. `CCCN(CCC)C(=O)SCc1ccccc1`: the LC retention time was 10.6 min. With `CCCSP(=O)(OCC)SCCC` the figure was 9.93 min. With `CNC(=O)ON=C(C)C(C)S(C)(=O)=O` (centres undefined) the figure was 7.37 min; with `COC(=O)Nc1nc2ccccc2[nH]1`, 6.3 min; with `CCOP(=S)(OCC)Oc1ccc(S(C)=O)cc1` (centres undefined), 9.1 min. To `CCC1CCCC(OC2CCC(N(C)C)C(C)O2)C(C)C(=O)C2=CC3C(C=CC4CC(OC5OC(C)C(OC)C(OC)C5OC)CC43)C2CC(=O)O1` (centres undefined) belongs 10.3 min; to `CC1=NNC(=O)N(N=Cc2cccnc2)C1`, 1.58 min; to `CC(C)(C)C(O)C(Oc1ccc(-c2ccccc2)cc1)n1cncn1` (centres undefined), 10.3 min. In the case of `CC1CCCC(=O)CCCC=Cc2cc(O)cc(O)c2C(=O)O1` (centres undefined), the LC retention time is 9.87 min.

For the molecule `CNC(=O)ON=C(C)SC`, the LC retention time was 6.05 min. To `CC(C)c1cc(Oc2ccccc2)cc(C(C)C)c1NC(=S)NC(C)(C)C` belongs 11 min; to `Cc1ccc(OP(=O)(Oc2ccc(C)cc2)Oc2ccc(C)cc2)cc1`, 11.9 min; to `CCc1ccc(C(=O)NN(C(=O)c2cc(C)cc(C)c2)C(C)(C)C)cc1`, 9.99 min. To `COCC(=O)N(c1c(C)cccc1C)C(C)C(=O)OC` (centres undefined) belongs 9.04 min. As for `COc1cc2c(c3oc(=O)c4c(c13)CCC4=O)C1C=COC1O2` (centres undefined), the LC retention time is 8.44 min. With `CCOP(=O)(SC(C)CC)SC(C)CC` (centres undefined) the figure was 10.5 min; with `CNC(=O)ON=CC(C)(C)S(C)=O` (centres undefined), 3.06 min. With `CCOP(=S)(Oc1ccc(C#N)cc1)c1ccccc1` (centres undefined) the figure was 8.72 min; with `CCC(C)c1cc([N+](=O)[O-])cc([N+](=O)[O-])c1OC(=O)OC(C)C` (centres undefined), 9.22 min. Regarding `CC(COc1ccc(Oc2ccccc2)cc1)Oc1ccccn1` (centres undefined), the LC retention time was 10.9 min.
